Measurements reported in PubChem BioAssay (NCI).
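The concentration for 50% growth inhibition is given as GI50. TGI: total growth inhibition.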

Legend:
Test in all cases: NCI-60 cell line screen, 384-well format; in the data active = GI50 below about 0.43 µM; inactive = the rest
[1] = tested on: BT-549 breast
[2] = tested on: MALME-3M melanoma
[3] = tested on: RXF 393 renal
[4] = tested on: HT29 colon
[5] = tested on: T-47D breast
[6] = tested on: MDA-MB-435 melanoma
[7] = tested on: COLO 205 colon
[8] = tested on: HCT-15 colon
[9] = tested on: SF-539 CNS
[10] = tested on: EKVX NSCLC
[11] = tested on: SN12C renal
[12] = tested on: A549 NSCLC
[13] = tested on: MCF7 breast
[14] = tested on: SK-MEL-28 melanoma
[15] = tested on: A498 renal
[16] = tested on: SW-620 colon
[17] = tested on: M14 melanoma
[18] = tested on: NCI-H226 lung
[19] = tested on: MDA-MB-468 breast
[20] = tested on: NCI-H322M lung
[21] = tested on: SK-MEL-2 melanoma
[22] = tested on: SK-MEL-5 melanoma
[23] = tested on: OVCAR-8 ovarian
[24] = tested on: RPMI-8226 leukemia
[25] = tested on: UACC-62 melanoma
[26] = tested on: PC-3 prostate
[27] = tested on: NCI/ADR-RES ovarian
[28] = tested on: NCI-H522 lung
[29] = tested on: IGROV1 ovarian
[30] = tested on: SF-268 CNS
[31] = tested on: SK-OV-3 ovarian
[32] = tested on: SNB-19 CNS
[33] = tested on: NCI-H460 NSCLC
[34] = tested on: HL-60(TB) leukemia
[35] = tested on: SR leukemia
[36] = tested on: TK-10 renal
[37] = tested on: 786-0 renal
[38] = tested on: SF-295 CNS
[39] = tested on: HOP-62 NSCLC
[40] = tested on: OVCAR-3 ovarian
[41] = tested on: MDA-MB-231 breast
[42] = tested on: HOP-92 NSCLC
[43] = tested on: UACC-257 melanoma
[44] = tested on: OVCAR-5 ovarian
[45] = tested on: CCRF-CEM leukemia
[46] = tested on: ACHN renal
[47] = tested on: CAKI-1 renal
[48] = tested on: SNB-75 CNS
[49] = tested on: NCI-H23 lung
[50] = tested on: KM12 colon
[51] = tested on: DU-145 prostate
[52] = tested on: HCC-2998 colon
[53] = tested on: MOLT-4 leukemia
[54] = tested on: HS 578T breast
[55] = tested on: U251 glioblastoma
[56] = tested on: OVCAR-4 ovarian

CNC(=O)c1ccc2cc(C3(O)CCn4cncc43)ccc2c1 (configuration not stated)
> 100 µM: TGI [1] | TGI [2] | TGI [3] | TGI [4] | TGI [5] | TGI [6] | TGI [7] | TGI [8] | TGI [9] | TGI [10] | TGI [11] | TGI [12] | TGI [13] | TGI [14] | TGI [15] | TGI [16] | TGI [17] | TGI [18] | TGI [19] | TGI [20] | TGI [21] | TGI [22] | TGI [23] | TGI [24] | TGI [25] | TGI [26] | TGI [27] | TGI [28] | TGI [29] | TGI [30] | TGI [31] | TGI [32] | TGI [33] | TGI [34] | TGI [35] | TGI [36] | TGI [37] | TGI [38] | TGI [39] | TGI [40] | TGI [41] | TGI [42] | TGI [43] | TGI [44] | TGI [45] | TGI [46] | TGI [47] | TGI [48] | TGI [49] | TGI [50] | TGI [51] | TGI [52] | TGI [53] | TGI [54] | TGI [55] | TGI [56]
inactive: GI50 [1] > 100 µM | GI50 [2] > 100 µM | GI50 [3] > 100 µM | GI50 [4] > 100 µM | GI50 [5] > 100 µM | GI50 [6] > 100 µM | GI50 [7] > 100 µM | GI50 [8] > 100 µM | GI50 [9] > 100 µM | GI50 [10] > 100 µM | GI50 [11] > 100 µM | GI50 [12] > 100 µM | GI50 [13] > 100 µM | GI50 [14] > 100 µM | GI50 [15] > 100 µM | GI50 [16] > 100 µM | GI50 [17] > 100 µM | GI50 [18] > 100 µM | GI50 [19] > 100 µM | GI50 [20] > 100 µM | GI50 [21] > 100 µM | GI50 [22] > 100 µM | GI50 [23] > 100 µM | GI50 [24] > 100 µM | GI50 [25] > 100 µM | GI50 [26] > 100 µM | GI50 [27] > 100 µM | GI50 [28] > 100 µM | GI50 [29] > 100 µM | GI50 [30] > 100 µM | GI50 [31] > 100 µM | GI50 [32] > 100 µM | GI50 [33] > 100 µM | GI50 [34] > 100 µM | GI50 [35] > 100 µM | GI50 [36] > 100 µM | GI50 [37] > 100 µM | GI50 [38] > 100 µM | GI50 [39] > 100 µM | GI50 [40] > 100 µM | GI50 [41] > 100 µM | GI50 [42] > 100 µM | GI50 [43] > 100 µM | GI50 [44] > 100 µM | GI50 [45] > 100 µM | GI50 [46] > 100 µM | GI50 [47] > 100 µM | GI50 [48] > 100 µM | GI50 [49] > 100 µM | GI50 [50] > 100 µM | GI50 [51] > 100 µM | GI50 [52] > 100 µM | GI50 [53] > 100 µM | GI50 [54] > 100 µM | GI50 [55] > 100 µM | GI50 [56] > 100 µM
